pIC50: −log10 of the molar value.

This is an account of results in ChEMBL document CHEMBL6121026, “Targeted Therapeutics in Oncology and Neurology: Advances in Kinase Inhibition and Biomarkers for Brain Injury” (ACS Med Chem Lett, 2025).

Assay [1] has as its target RAC-beta serine/threonine-protein kinase (Homo sapiens, UniProt P31751). Briefly: Inhibition of Nano Luc-fused wild type AKT2 (unknown origin) expressed in HEK293 cells using luciferase substrate preincubated for 2 hrs followed by substrate added by NanoBRET Live cell target engagement assay. The assay is classed as cell-based. (In general: BRET reads energy transfer from a luciferase to a nearby fluorophore.)

Assay [2] concerns the target RAC-alpha serine/threonine-protein kinase (Homo sapiens, UniProt P31749). Description: Inhibition of Nano Luc-fused wild type AKT1 (unknown origin) expressed in HEK293 cells using luciferase substrate preincubated for 2 hrs followed by substrate added by NanoBRET Live cell target engagement assay. In kind it is cell-based.

Chain of RAC-beta serine/threonine-protein kinase (P31751 whole entry, the tested form may be a part): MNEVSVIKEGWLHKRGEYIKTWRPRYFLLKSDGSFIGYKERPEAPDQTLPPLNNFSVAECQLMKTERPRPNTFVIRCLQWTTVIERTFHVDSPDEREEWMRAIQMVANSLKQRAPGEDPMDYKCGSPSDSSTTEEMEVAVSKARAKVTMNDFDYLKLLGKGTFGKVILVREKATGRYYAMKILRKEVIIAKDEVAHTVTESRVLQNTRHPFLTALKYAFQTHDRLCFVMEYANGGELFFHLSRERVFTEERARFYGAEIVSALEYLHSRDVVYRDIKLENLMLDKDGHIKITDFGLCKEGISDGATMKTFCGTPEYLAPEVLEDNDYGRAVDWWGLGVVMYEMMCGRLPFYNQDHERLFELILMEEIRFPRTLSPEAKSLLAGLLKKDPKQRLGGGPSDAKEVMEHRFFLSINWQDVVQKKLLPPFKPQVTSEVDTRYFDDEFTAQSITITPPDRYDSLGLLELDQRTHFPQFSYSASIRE
Chain of RAC-alpha serine/threonine-protein kinase (P31749 whole entry, the tested form may be a part): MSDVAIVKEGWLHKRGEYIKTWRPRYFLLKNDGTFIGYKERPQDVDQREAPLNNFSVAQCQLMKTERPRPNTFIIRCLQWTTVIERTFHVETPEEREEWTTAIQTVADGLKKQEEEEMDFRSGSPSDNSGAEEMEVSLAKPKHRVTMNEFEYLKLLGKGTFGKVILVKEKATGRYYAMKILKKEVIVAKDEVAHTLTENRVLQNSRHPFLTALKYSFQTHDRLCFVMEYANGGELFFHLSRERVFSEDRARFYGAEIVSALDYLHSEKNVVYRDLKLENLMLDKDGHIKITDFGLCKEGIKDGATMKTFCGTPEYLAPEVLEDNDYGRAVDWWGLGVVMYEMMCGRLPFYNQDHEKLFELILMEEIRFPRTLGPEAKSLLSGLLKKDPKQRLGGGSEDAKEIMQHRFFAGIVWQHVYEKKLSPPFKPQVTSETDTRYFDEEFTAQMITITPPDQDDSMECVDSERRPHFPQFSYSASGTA

For orientation: pIC50 means −log10 of the IC50, conventionally taken in molar units. `Nc1ncccc1-c1nc2ccc(-c3ccccc3)nc2n1-c1ccc2c(c1)CC[C@@H]2NC(=O)c1cc(C=O)c2[nH]ncc2c1`: the pIC50 in assay [1] and in assay [2] was no less than 7.00 throughout.
For `CN1CCN(c2cccc(-c3ccc4nc(-c5cccnc5N)n(-c5ccc6c(c5)CC[C@@H]6NC(=O)c5ccc(O)c(C=O)c5)c4n3)c2)CC1`, the pIC50 in assay [1] and in assay [2] was no less than 8.00 throughout.
For `Nc1ncccc1-c1nc2ccc(-c3ccccc3)nc2n1-c1ccc2c(c1)CC[C@@H]2NC(=O)c1cc(C=O)c(O)c(F)c1F`, the pIC50 in assay [1] and in assay [2] was no less than 7.00 in each case.
As to `CC(=O)Nc1ccc(C(=O)N[C@H]2CCc3cc(-n4c(-c5cccnc5N)nc5ccc(-c6ccccc6)nc54)ccc32)cc1C=O`, the values for the pIC50 in assay [1] and in assay [2] were no less than 7.00 and no less than 8.00, respectively.
For `COc1cnn(-c2ccc3nc(-c4cccnc4N)n(-c4ccc5c(c4)CC[C@@H]5NC(=O)c4ccc(O)c(C=O)c4)c3n2)c1` the same measures were no more than 5.70 and no less than 7.00.
For `CS(=O)(=O)Nc1ccc(C(=O)N[C@H]2CCc3cc(-n4c(-c5cccnc5N)nc5ccc(-n6cccn6)nc54)ccc32)cc1C=O` the same measures were no more than 5.70 and no less than 7.00.
Take `Nc1ncccc1-c1nc2ccc(-c3ccccc3F)nc2n1-c1ccc2c(c1)CC[C@@H]2NC(=O)c1ccc(O)c(C=O)c1`: the pIC50 in assay [1] and in assay [2] was no less than 7.00 throughout.
On to `Nc1ncccc1-c1nc2ccc(-n3cccn3)nc2n1-c1ccc2c(c1)CC[C@@H]2NC(=O)c1cc(C=O)c(O)c(F)c1F`, for which the pIC50 in assay [1] and in assay [2] was no less than 7.00 in each case.
